Results as given in US7396856B2, “Benzopyran analogs and their use for the treatment of glaucoma” (Alcon, Inc., priority 2002, dated 2008).
Structures can show the parent of a compound that is named as a salt. Where two headings read alike, the source gives them in different places.

Columns and labels:
[1] = biological target: T1, 5-HT2 receptor (Rattus norvegicus, UniProt P14842); assay: 5-HT2 functional assay: [Ca2+]i mobilization (FLIPR) in A7r5 cells; format: cell-based; details: for Emax / Efficacy (Emax, %): percentage of maximum 5-HT-induced response; for Emax: read-out: Efficacy (Emax, %); for EC50: A7r5 rat vascular smooth muscle cells, FLIPR
T1 construct: endogenous in cells; host or cells: A7r5 rat vascular smooth muscle cells
Procedure: 5-HT2 Functional Assay: [Ca^2+]i Mobilization
The receptor-mediated mobilization on intracellular calcium ([Ca^2+]i) was studied using the Fluorescence Imaging Plate Reader (FLIPR) instrument. Rat vascular smooth muscle cells, A7r5, were grown in a normal media of […] and 10 μg/mL gentamycin. Confluent cell monolayers were trypsinized, pelleted, and re-suspended in normal media. Cells were seeded in a 50 μL volume at a density of 20,000 cells/well in a black wall, 96-well tissue culture plate and grown for 2 days.
On the day of the experiment, one vial of FLIPR Calcium Assay Kit dye was re-suspended in 50 mL of a FLIPR buffer consisting of Hank's Balanced Salt Solution (HBSS), 20 mM HEPES, and 2.5 mM probenecid, pH 7.4. Cells were loaded with the calcium-sensitive dye by addition of an equal volume ([…]) to each well of the 96-well plate and incubated with dye for 1 h at 23° C.
Compounds were diluted 1:50 in […]. For “hit” screening, compounds were further diluted 1:10 in FLIPR buffer and tested at a final concentration of 10 μM.
The compound plate and cell plate were placed in the FLIPR instrument. At the beginning of an experimental run, a signal test was performed to check the basal fluorescence signal from the dye-loaded cells and the uniformity of the signal across the plate. The basal fluorescence was adjusted between 8000-12000 counts by modifying the exposure time, the camera F-stop, or the laser power. Instrument settings for a typical assay were the following: laser power 0.3-0.6 W, camera F-stop F/2, and exposure time 0.4 sec. An aliquot (25 μL) of the test compound was added to the existing 100 μL dye-loaded cells at a dispensing speed of 50 μL/sec. Fluorescence data were collected in real-time at 1.0 sec intervals for the first 60 secs and at 6.0 sec intervals for an additional 120 secs.

[2] = test system: intraocular pressure (IOP); assay: Acute IOP response in lasered (hypertensive) eyes of conscious cynomolgus monkeys; format: in vivo; details: lasered monkey eye
Procedure: Acute IOP Response in Lasered (Hypertensive) Eyes of Conscious Cynomolgus Monkeys
Intraocular pressure (IOP) can be determined with an Alcon Pneumatonometer after light corneal anesthesia with 0.1% proparacaine. Eyes are washed with saline after each measurement. After a baseline IOP measurement, test compound is instilled in one 30 μL aliquot to the right eyes only of nine cynomolgus monkeys. Vehicle is instilled in the right eyes of six additional animals. Subsequent IOP measurements are taken at 1, 3, and 6 hours.

[3] = biological target: brain 5-HT2 receptors (Rattus norvegicus, UniProt P14842); assay: 5-HT2 receptor binding assay ([125I]DOI competition); details: [125I]DOI displacement, rat or human cerebral cortex homogenates
Procedure: 5-HT2 Receptor Binding Assay
The assay mixture is incubated for 1 hour at 23° C. in polypropylene tubes and the assays terminated by rapid vacuum filtration over Whatman GF/B glass fiber filters previously soaked in 0.3% polyethyleneimine using ice-cold buffer. Test compounds (at different concentrations) are substituted for methiothepin. Filter-bound radioactivity is determined by scintillation spectrometry on a beta counter. The data are analyzed using a non-linear, iterative curve-fitting computer program [Trends Pharmacol. Sci., 16, 413 (1995)] to determine the compound affinity parameter. The concentration of the compound needed to inhibit the [^125I]DOI binding by 50% of the maximum is termed the IC50 or Ki value.

[4] = EC50, nM (5-HT2 functional, [Ca2+]i mobilization)
[5] = 1 hour after single topical ocular instillation of 300 μg
[6] = 3 hours after single topical ocular instillation of 300 μg
[7] = 6 hours after single topical ocular instillation of 300 μg

T1 sequence (P14842 whole entry): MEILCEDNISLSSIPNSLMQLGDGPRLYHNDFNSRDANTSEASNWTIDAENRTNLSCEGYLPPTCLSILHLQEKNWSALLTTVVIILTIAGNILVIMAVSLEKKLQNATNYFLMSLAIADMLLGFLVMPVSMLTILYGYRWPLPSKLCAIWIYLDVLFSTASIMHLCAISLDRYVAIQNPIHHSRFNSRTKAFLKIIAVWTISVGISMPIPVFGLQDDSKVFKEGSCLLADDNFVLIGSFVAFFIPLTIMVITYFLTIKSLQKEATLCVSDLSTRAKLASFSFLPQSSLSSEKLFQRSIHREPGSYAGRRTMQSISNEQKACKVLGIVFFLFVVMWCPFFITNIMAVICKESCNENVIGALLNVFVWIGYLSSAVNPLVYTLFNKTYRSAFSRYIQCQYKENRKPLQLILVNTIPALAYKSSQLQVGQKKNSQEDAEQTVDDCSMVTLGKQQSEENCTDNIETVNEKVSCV
brain 5-HT2 receptors, sequence (P14842 whole entry): as above

COc1cc(CC(C)N)c(OC)c2c1CCOC2.Cl (single isomer, unassigned; (-)) [Compound B, (−) 2-(5,8-Dimethoxy-isochroman-7-yl)-1-methyl-ethylamine hydrochloride]
Emax ([1]; A7R5, A7r5 cells): 55% | EC50 [1, 4]: 39 nM | IOP lowering (%) [2, 5]: 15.8% | IOP lowering (mmHg) [2, 5]: 6.8 mmHg | IOP lowering (%) [2, 6]: 28.5% | IOP lowering (mmHg) [2, 6]: 12.5 mmHg | IOP lowering (%) [2, 7]: 21.3% | IOP lowering (mmHg) [2, 7]: 9.6 mmHg

COc1cc(CC(C)N)c(OC)c2c1CCOC2.Cl (single isomer, unassigned; (+)) [Compound C, (+) 2-(5,8-Dimethoxy-isochroman-7-yl)-1-methyl-ethylamine hydrochloride]
Efficacy (Emax, %) ([1]; A7r5 cells, hydrochloride): 69% | EC50 [1, 4]: 43 nM

COc1cc(CC(C)N)c(OC)cc1I (stereo not drawn) [DOI, reference compound]
IC50 [3]: 0.33 nM | Efficacy (Emax, %) ([1]; A7r5 cells): 31% | EC50 ([1]; read-out: EC50, nM (5-HT2 functional, [Ca2+]i mobilization)): 30.2 nM

COc1cc(CC(C)N)c(OC)c2c1CCOC2 (racemic) [Compound A, 2-(5,8-Dimethoxy-isochroman-7-yl)-1-methyl-ethylamine hydrochloride]
Emax ([1]; A7r5 cells): 55% | EC50 [1, 4]: 267 nM
